Measurements as given in publication PMC8000079, “Targeting GABAC Receptors Improves Post-Stroke Motor Recovery” (Brain Sciences, 2021).

Columns and labels:
Type in all cases: cell-based
α5β2γ2 GABAA receptor = target: T1, α5β2γ2 GABAA receptor (Homo sapiens, UniProt P31644+P47870); experiment: two-electrode voltage clamp in Xenopus oocytes, % inhibition of GABA ([…]) current at […]
T1 construct: gene GABRA5; α5β2γ2 receptors expressed in Xenopus oocytes; with β2 and γ2 GABAA subunits

ρ2 GABAC receptor [1] = target: T2, ρ2 GABAC receptor (Homo sapiens, UniProt P28476); experiment: two-electrode voltage clamp in Xenopus oocytes, shift of GABA concentration-response curve; details: read-out: Kd
T2 construct: gene GABRR2; human recombinant ρ2 GABAC receptors expressed in Xenopus oocytes
T2 sequence (P28476 21-465): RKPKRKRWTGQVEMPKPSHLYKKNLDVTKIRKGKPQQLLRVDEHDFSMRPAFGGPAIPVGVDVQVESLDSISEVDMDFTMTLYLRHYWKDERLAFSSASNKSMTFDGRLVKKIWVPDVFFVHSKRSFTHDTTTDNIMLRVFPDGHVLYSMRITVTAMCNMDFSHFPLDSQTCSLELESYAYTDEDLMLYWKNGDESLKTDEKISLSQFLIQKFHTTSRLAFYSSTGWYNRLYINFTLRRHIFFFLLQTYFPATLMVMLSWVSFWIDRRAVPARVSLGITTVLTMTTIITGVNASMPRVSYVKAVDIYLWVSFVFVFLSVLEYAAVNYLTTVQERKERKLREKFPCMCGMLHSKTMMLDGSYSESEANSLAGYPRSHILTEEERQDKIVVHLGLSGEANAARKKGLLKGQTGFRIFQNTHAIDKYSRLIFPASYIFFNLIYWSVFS

ρ2 GABAC receptor [2] = target: T2, ρ2 GABAC receptor; experiment: two-electrode voltage clamp in Xenopus oocytes, agonist dose-response

T1 sequence (P47870 26-512): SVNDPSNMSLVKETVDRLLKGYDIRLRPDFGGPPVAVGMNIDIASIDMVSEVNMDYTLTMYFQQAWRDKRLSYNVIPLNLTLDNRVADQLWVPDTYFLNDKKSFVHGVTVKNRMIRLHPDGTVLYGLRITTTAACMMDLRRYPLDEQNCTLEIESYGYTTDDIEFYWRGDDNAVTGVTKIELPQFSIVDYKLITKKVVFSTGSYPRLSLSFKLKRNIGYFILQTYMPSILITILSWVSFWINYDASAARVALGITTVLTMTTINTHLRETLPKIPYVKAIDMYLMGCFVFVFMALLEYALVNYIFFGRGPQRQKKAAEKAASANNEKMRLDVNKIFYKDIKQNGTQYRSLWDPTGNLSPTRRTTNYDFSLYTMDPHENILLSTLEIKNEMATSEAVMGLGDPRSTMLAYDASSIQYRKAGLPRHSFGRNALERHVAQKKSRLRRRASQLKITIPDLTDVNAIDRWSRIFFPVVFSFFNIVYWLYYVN
T1 sequence (P18507 40-475, further chain): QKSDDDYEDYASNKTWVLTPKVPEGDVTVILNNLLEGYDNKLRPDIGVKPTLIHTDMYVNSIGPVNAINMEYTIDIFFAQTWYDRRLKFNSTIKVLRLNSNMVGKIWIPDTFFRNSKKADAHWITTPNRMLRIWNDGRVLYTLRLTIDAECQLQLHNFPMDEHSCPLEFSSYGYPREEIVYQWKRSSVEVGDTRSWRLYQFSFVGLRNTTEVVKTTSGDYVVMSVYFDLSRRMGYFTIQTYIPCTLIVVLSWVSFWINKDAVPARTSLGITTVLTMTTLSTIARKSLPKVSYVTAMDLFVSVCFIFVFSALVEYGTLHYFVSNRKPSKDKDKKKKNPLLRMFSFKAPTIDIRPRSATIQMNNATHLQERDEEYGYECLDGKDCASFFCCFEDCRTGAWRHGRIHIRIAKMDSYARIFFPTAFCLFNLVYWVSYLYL
T1 sequence (P31644 32-462): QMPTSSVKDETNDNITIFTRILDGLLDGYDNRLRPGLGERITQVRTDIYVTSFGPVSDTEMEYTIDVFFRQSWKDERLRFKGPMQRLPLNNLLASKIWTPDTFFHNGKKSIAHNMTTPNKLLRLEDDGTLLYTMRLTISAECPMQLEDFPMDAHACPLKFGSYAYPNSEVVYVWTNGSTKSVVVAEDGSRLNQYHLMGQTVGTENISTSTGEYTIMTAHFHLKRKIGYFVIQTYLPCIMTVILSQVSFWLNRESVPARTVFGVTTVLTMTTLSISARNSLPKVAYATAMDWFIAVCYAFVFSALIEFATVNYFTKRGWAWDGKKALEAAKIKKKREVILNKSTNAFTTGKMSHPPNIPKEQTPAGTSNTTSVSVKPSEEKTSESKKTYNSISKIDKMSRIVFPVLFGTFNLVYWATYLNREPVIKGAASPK

Structure (SMILES)	inhibition at 100 µM (α5β2γ2 GABAA receptor)	Kb (ρ2 GABAC receptor [1])	EC50 (ρ2 GABAC receptor [2])
CCCCP(=O)(O)C1=CC[C@@H](N)C1 [(R)-4-ACPBPA, (R)-4-amino-cyclopent-1-enyl butylphosphinic acid]	36 ± 2%	6 µM	
CCCCP(=O)(O)C1=CC[C@H](N)C1 [(S)-4-ACPBPA, (S)-4-amino-cyclopent-1-enyl butylphosphinic acid]	37 ± 1.5%	10.5 µM	
NCCCC(=O)O [GABA, γ-aminobutyric acid]			~ 1 µM
